We go through two molecules from patent publication US4684630A, “Method of parenterally delivering drugs and related compositions” (priority 1985, dated 1987).

Values after ≈ are worked out from the molar mass of the structure shown. Like-named read-outs stand apart in the source and are kept apart here.

Series [1] can be described thus: Precipitation on further dilution of the organic-aqueous solutions with sterile intravenous solutions. It is filed as physicochemical. Particulars: solutions of Example 3 diluted with 5% dextrose-0.45% saline or 0.9% saline; 250 ml/hr vehicle, 6 ml/hr drug solution, 12 hours. As for the experimental part:
The organic-aqueous solutions of Example 3 are further diluted with two standard sterile intravenous solutions: a 5% dextrose-0.45% saline solution and a 0.9% saline solution. The aqueous delivery vehicles were delivered at a rate of 250 ml/hr. The concentrated drug solutions (approx. 10 mg/ml) were introduced through a side arm tubing located several inches above the injection point for 12 hours at the rate of 6 ml/hr. measured by a calibrated infusion pump. […] At this rate, the effective dosage concentration per unit volume of the final organic-aqueous solution was approximately 1 mg/ml. The final diluted organic-aqueous solutions were filtered using Wattman filter paper.

Series [2] is classed as physicochemical. Particulars: for time for which ara-AC has proven stable: neat, higher temperatures (e.g., 50°-60° C.). As for the experimental part: (§1) Two neat, anhydrous solutions of ara-AC dissolved in DMSO and DMA, respectively, were prepared. […] Ara-AC has a solubility of approximately 20 mg/ml in water. The effective dose for ara-AC is 700 mg. […] At higher temperatures (e.g., 50°-60° C.), the ara-AC has proven stable for at least 3 weeks. Thus, the solutions of ara-AC in DMSO and DMA appear to be stable enough for commercial production, handling, and storage. By contrast, a solution of ara-AC in water would degrade 10% in 1.8 hours at 25° C.

Series [3] can be described thus: Degradation kinetics of ara-AC in aqueous and mixed organic-aqueous solvent systems at 25° C. (reverse phase HPLC).
Series [4] is described as follows: physchem. It is filed as physicochemical. As for the experimental part: as §1
The mark [5] stands for this setting: Buffer (phosphate 0.01 M, pH 7.0, μ = 0.1 with NaCl), ara-AC 0.25 mg/ml, measured pH 7.0, 25° C.
The mark [6] stands for this setting: Distilled H2O, ara-AC 0.25 mg/ml, measured pH 6.8, 25° C.

In the case of `Nc1ncn([C@@H]2O[C@H](CO)[C@@H](O)[C@H]2O)c(=O)n1` [5-AC, 5-azacytidine], in series [1], the “precipitation or other undesirable effects” value is recorded as “No precipitation or other undesirable effects”.

Take `Nc1ncn([C@@H]2O[C@H](CO)[C@@H](O)[C@@H]2O)c(=O)n1` [ara-AC, 5-azacytosine arabinoside]: the “degradation during 5 months” value in series [2] is reported as “no observable degradation”. Besides, the “time for which ara-AC has proven stable” value in series [2] (anhydrous DMA solution) and in series [2] (anhydrous DMSO solution) was “at least 3 weeks” throughout. The t90 in series [3] (5% DMA in Buffer (phosphate 0.01 M, pH 6.8), ara-AC 5.0 mg/ml, apparent pH 7.0, 25° C.) is 1.9 h; in series [3] (5% DMSO in Buffer (phosphate 0.01 M, pH 6.8), ara-AC 5.0 mg/ml, apparent pH 7.0, 25° C.), 2.0 h; in series [3] (10% DMA in Buffer (phosphate 0.01 M, pH 6.8), ara-AC 5.0 mg/ml, apparent pH 7.1, 25° C.) it was 2.2 h; in series [3] (10% DMSO in Buffer, ara-AC 5.0 mg/ml, apparent pH 7.1, 25° C.), 2.5 h; in series [3] (25% DMA in Buffer (phosphate 0.01 M, pH 6.8), ara-AC 5.0 mg/ml, apparent pH 7.4, 25° C.), 2.7 h; in series [3] (25% DMSO in Buffer, ara-AC 5.0 mg/ml, apparent pH 7.4, 25° C.), 2.8 h. The t90 in series [3] (50% DMA in Buffer (phosphate 0.01 M, pH 6.8), ara-AC 5.0 mg/ml, apparent pH 8.1, 25° C.) was determined as 4.5 h; in series [3] (55% DMA in Buffer (phosphate 0.01 M, pH 6.8), ara-AC 5.0 mg/ml, apparent pH 8.3, 25° C.), 6.0 h; in series [3] (60% DMA in Buffer (phosphate 0.03 M, pH 6.0, μ = 0.3 M with NaCl), ara-AC 5.0 mg/ml, apparent pH 7.4, 25° C.), 15.0 h; in series [3] (60% DMSO in Buffer (phosphate 0.03 M, pH 6.0, μ = 0.3 M with NaCl), ara-AC 5.0 mg/ml, apparent pH 7.8, 25° C.), 16.0 h; in series [3] (65 wt. % DMA-35 wt. % water solution), 16.0 h; in series [3] (70% DMSO in H2O, ara-AC 5.0 mg/ml, apparent pH 8.0, 25° C.) it was 28.0 h. Further, the t90 in series [3] (70 wt % DMSO-30 wt. % water solution) was determined as 28.0 h; in series [3] (setting [5]), 1.7 h; in series [3] (setting [6]) it was 1.8 h. For the same molecule, the figures for the “Kobs (observed degradation rate constant)” value in series [3] (setting [5]) and in series [3] (setting [6]) were 1.55 × 10^-2 hr.^-1 and 1.34 × 10^-2 hr.^-1, respectively. In addition, the “t90 (10% decomposition in water)” value in series [3] (water, 25° C.) worked out at 1.8 h. In addition, the solubility was 170 mg/mL (≈ 696 mM) in series [4] (dma, organic solvent or mixture); 370 mg/mL (≈ 1520 mM) in series [4] (dmso, organic solvent or mixture); about 20 mg/mL (≈ 81.9 mM) in series [4] (water). Moreover, the “precipitation or other undesirable effects” value in series [1] is “No precipitation or other undesirable effects”.

The solubility is how much of the substance goes into solution per volume.
